Source: patent publication US20170295779A9, “COMPOSITION COMPRISING A PESTICIDE AND AMIDE” (BASF SE, priority 2013, published 2017)

Tests used:
barley (cultivar Lawina) = experiment: Phytotoxicity greenhouse test, spray of carboxylic acid amide on barley; format: in vivo; details: 3-4 leaf stage, spray 200 l/ha comprising 1500 ml carboxylic acid amide/ha, visual score vs plants treated with water only
Method: Phytotoxicity in accordance with the present invention is determined by an assay where a spray comprising water (aqua dest.) and carboxylic acid amide (200 l/ha comprising 1500 ml carboxylic acid amide/ha) is prepared and applied on plants of barley (cultivar […]) being in 3-4 leaf stage at a water application rate of 1.5 l/ha. The experimental period lasts for 10 days. During this time, the experimental plants receive optimum watering, with nutrients being supplied via the water used for watering. The phytotoxicity is evaluated by awarding scores to the treated plants in comparison to untreated plants, i.e. treated with water only. The evaluation scale ranges from 0% to 100% phytotoxicity. The evaluation is done by visual examination. 0% phytotoxicity means that there are no differences between treated and untreated plants. Thus, no phytotoxicity in accordance with the present invention means that the treated plants to not have plant injury and there is no difference between treated and untreated plants. Low phytotoxicity in accordance with the present invention means that only 1 to 10% of the treated plants have plant injury as compared to untreated plants. For the greenhouse tests, barley (cultivar […]) was sown and cultivated in standard soil (type P, fine) for 3 weeks. The spray mixtures were applied with a minicompressor (4 times) in a laboratory fume hood on plants being in 3-4 leaf stage. A spray comprising water (aqua dest.) and dibutylpropionamide from Example 1 (200 l/ha comprising 1500 ml dibutylpropionamide/ha) was prepared and applied at a water application rate of 1.5 l/ha. The experimental period lasted for 10 days. During this time, the experimental plants received optimum watering, with nutrients being supplied via the water used for watering. The phytotoxicity was evaluated by assessing scores to the treated plants in comparison to untreated plants, i.e. treated with water only (see Table 1). The evaluation scale ranges from 0% to 100% phytotoxicity. The evaluation was done by visual examination. Thus, 0% phytotoxicity means that there were no differences between treated and untreated plants. […] A rating of 0% phytotoxicity means no crop injury. […] A rating of 100% means the complete destruction of all plants. […] Thus, less than 10% of the plants were affected when said carboxylic acid amides were applied on the plants in a dose of 1500 ml/ha. […] Thus, carboxylic acid amides wherein the N,N-alkyl groups are having more than two carbon atoms seem to have no or almost no phytotoxic effect on the plants and can therefore be used in agricultural compositions for reducing the phytotoxicity in such compositions.

[1] = Determination of the max. solubility of fungicides in carboxylic acid amides; format: physicochemical
Method: The respective fungicide was dissolved in the solvent of interest so that a supersaturated solution was obtained. The deposit was filtered off. The concentration of the fungicide in the supernatant was determined via quantitative 1H-NMR spectroscopy.

Row | SMILES | Phytotoxicity [%] 10 days after treatment (barley (cultivar Lawina)) [%] | Phytotoxicity [%] 10 days after treatment (barley (cultivar Lawina); listed as dimethylpropionamide) | Solubility [%] Fluxapyroxad [1] [%]
1 | CCC(=O)N(CC)CC [Diethylpropionamide, N,N-diethyl-propionamide] | 6 |  | 
2 | CCC(=O)N(C)C [Dimethylpropionamide, N,N-dimethyl-propionamide, reference compound] | 43 | up to 43% | 
3 | CCCCCCCC(=O)N(CCCC)CCCC [C8-dibutylamide, N,N-dibutyl-octanamide] | 5 |  | 
4 | CCCCN(CCCC)C(=O)CC [Dibutylpropionamide, N,N-dibutyl-propionamide] | 0 |  | 28
